Measured values: patent US20170165247A1, “CRYSTALLINE COMPOUNDS OF DABIGATRAN ETEXILATE” (OLON S.p.A., priority 2014, published 2017)

Tests used:
[1] = Kinetic dissolution of tablet in phosphate buffer pH 4.5; type: physicochemical; details: for Average Conc.: tablet dissolution
Procedure: Kinetic Dissolution Experimental Conditions for Tablet Dissolution Dissolution Medium: […] Temperature: 37±0.5° C. Volume: 80 mL Time: 2 hrs Sample: Tablet (weight 200 mg) Stirring: Paddle 100 rpm Sampling time: 5 min, 15 min, 25 min, 35 min, 45 min, 60 min and 120 min. Repetitions: 2 for each experiment At the time fixed, withdraw 3 mL from each vessel. Reinstate the withdrawn volume. Filter each solution with 0.20 μm filter, discarding the first 1 mL. […] Each withdrawal was analyzed without further dilution. The sample was analyzed using the chromatographic conditions reported herein.

[2] = Thermodynamic solubility test in buffer solution (HPLC); type: physicochemical; details: buffer pH 4.5, 37° C., 24 hours
Procedure: The solubility tests were performed in a buffer solution at ph 4.5 and compared with the solubility data of dabigatran etexilate mesylate (commercial form).
Thermodynamic Solubility Tests
The sample (approx. 50 mg) was weighted in a vial and left under magnetic stirring (approx. 300 rpm) in approx. 2 mL of buffer solution at 37° C. for 24 hours. The experiments were carried out at pH 4.5 and pH 6.8. The suspensions were filtered with 0.45 μm filter and analyzed by HPLC method previously reported. From the obtained area an opportune dilution of the sample was performed to obtain a value consistent with the Calibration Curve. Every diluted sample was analyzed by HPLC and the results were interpolated by the calibration curve.
Each experiment was replicated twice.

| Molecule | Average Conc. ([1]; pH 4.5, time 5 min) | Average Conc. ([1]; pH 4.5, time 15 min) | Average Conc. ([1]; pH 4.5, time 25 min) | Average Conc. ([1]; pH 4.5, time 35 min) | Average Conc. ([1]; pH 4.5, time 45 min) | Average Conc. ([1]; pH 4.5, time 60 min) | Average Conc. ([1]; pH 4.5, time 120 min) | dissolution rate compared with the mesylate salt (in words) ([1]; kinetic dissolution, phosphate buffer pH 4.5, 37° C.) | dissolution rate, times higher than the mesylate derivative ([1]; tablet, phosphate buffer pH 4.5, 37° C., paddle 100 rpm, compared with mesylate) | Average Conc. [2] |
| --- | --- | --- | --- | --- | --- | --- | --- | --- | --- | --- |
| CCCCCCOC(=O)N=C(N)c1ccc(NCc2nc3cc(C(=O)N(CCC(=O)OCC)c4ccccn4)ccc3n2C)cc1.O=C(O)c1cc(O)c(O)c(O)c1 [Dabigatran/gallate 1/1] | 10.01 | 28.10 | 44.94 | 62.45 | 75.18 | 90.21 | 106.50 | – | – | – |
| Dabigatran Etexilate Orotate Anhydrous Form a (Dabigatran/Orotic Acid 1/1 Mol/Mole) | – | – | – | – | – | – | – | comparable | more than 8.7 times | – |
| Gallate | – | – | – | – | – | – | – | – | – | 0.40 µg/mL |

The next lines start with results.

| Average Conc. ([1]; pH 4.5, time 5 min) | Average Conc. ([1]; pH 4.5, time 15 min) | Average Conc. ([1]; pH 4.5, time 25 min) | Average Conc. ([1]; pH 4.5, time 35 min) | Average Conc. ([1]; pH 4.5, time 45 min) | Average Conc. ([1]; pH 4.5, time 60 min) | Average Conc. ([1]; pH 4.5, time 120 min) | dissolution rate compared with the mesylate salt (in words) ([1]; kinetic dissolution, phosphate buffer pH 4.5, 37° C.) | dissolution rate, times higher than the mesylate derivative ([1]; tablet, phosphate buffer pH 4.5, 37° C., paddle 100 rpm, compared with mesylate) | Molecule | Average Conc. [2] |
| --- | --- | --- | --- | --- | --- | --- | --- | --- | --- | --- |
| 6.86 | 9.09 | 11.40 | 13.28 | 15.96 | 18.55 | 26.44 | – | – | CCCCCCOC(=O)NC(=N)c1ccc(NCc2nc3cc(C(=O)N(CCC(=O)OCC)c4ccccn4)ccc3n2C)cc1.CS(=O)(=O)O [Dabigatran/mesylate 1/1] | – |
| 8.76 | 11.06 | 12.26 | 13.74 | 15.52 | 17.21 | 28.89 | – | – | CCCCCCOC(=O)N=C(N)c1ccc(NCc2nc3cc(C(=O)N(CCC(=O)OCC)c4ccccn4)ccc3n2C)cc1.O=C(O)c1cc(=O)[nH]c(=O)[nH]1 [Dabigatran/orotate 1/1] | – |
